Assay [1] deals with lipid-peroxide formation in cerebral homogenate. In words: Lipid-peroxide formation inhibiting activity (TBA method, cerebral homogenate). Type of assay: biochemical, Wistar strain male rat. To be noted: rat cerebral homogenate; for IC50: incubated 30 minutes at 37° C; for Percent inhibition at 100 μM: 30 minutes at 37° C. As to the method: (1) Lipid-peroxide formation inhibiting activity
(a) Preparation of cerebral homogenate
[…]. Then, cerebral irrigation was made with ice-cold physiological saline solution buffered with 50 mM phosphoric acid (pH value of 7.4, hereinafter referred to as "PBS"), and the whole brain was extracted. After removing the cerebellum, the cerebrum was weighed in the wet state, added with PBS of 9 times the weight and homogenized in ice-cold water with a teflon homogenizer. The cerebral homogenate was centrifuged at […] and 2200 rpm for 10 minutes, and 0.3 ml of the supernatant was partitioned into a ground stoppered light-resistant test tube to prepare a cerebral homogenate to be used for drug evaluation.
(b) Evaluation of test drug
The cerebral homogenate which was prepared by the above procedure (a) was added with 0.6 ml of PBS and 10 μl of ethanol solution which contained the test drug of […] in final concentration and incubated for 30 minutes in a water bath at 37° C. Then, the mixture was added with 200 μl of aqueous 35% solution of perchloric acid and centrifuged at 4° C and 2,600 rpm for 10 minutes to collect the supernatant.
In addition, 10 μl of ethanol (blank) was added instead of the test drug.
(c) Determination of lipid peroxide
The supernatant of 0.1 ml which was obtained in the above procedure (b) was added with 0.2 ml of aqueous 8.1% sodium dodecyl sulfate solution, 1.5 ml of 20% acetic acid buffer solution (pH of 3.5), 1.5 ml of 0.67% 2-thiobarbituric acid solution and 0.7 ml of distilled water and mixed. The mixed solution was heated for 60 minutes in boiling water bath, quenched with ice-cold water and added with 1.0 ml of distilled water and 5.0 ml of a mixture solution of pyridine and butanol (1:15). After 30 seconds of shaking, the mixed solution was centrifuged at 3,000 rpm for 10 minutes, and the supernatant was collected as the sample for lipid peroxide measurement.
In addition, 0.1 ml of Lipoperoxide-test reagent (Wako Pure Chemicals Co., Ltd.: 1,1,3,3-tetraethoxypropane is contained by […]) was added instead of the cerebral homogenate obtained in the above procedure (b) to prepare the reference solution
The amount of lipid peroxide was measured at a excitation wavelength of 515 nm and a fluorescence wavelength of 550 nm using a fluoro-spectrophotometer (Model 204, made by Hitachi, Ltd.) and calculated by the following formula: [formula] where, F=fluorescence intensity of the reference solution
f=fluorescence intensity of the test drug.
Then, the inhibition rates of the test drugs at each concentration were obtained for the TBA value of the blank under (b) above and IC value were calculated by the method of least square means.

Assay [2] deals with lipid peroxidation due to active oxygen species. To be noted: prior art; cited from earlier work.
Another assay relates to cerebral ischemia model. In words: Cerebral protective activity in cerebral ischemia model. Type of assay: in vivo, Wistar-strain male rat. Conditions: 10 mg/kg into the duodenum; for restoration of electroencephalogram: 30 minutes before 10 minutes ischemia; for restoration of electroencephalogram / function of the pulsation system: after release of ischemia; for survival period of time: control died 75 minutes in average from blood reflow. As for the experimental part: (2) Cerebral protective activity in cerebral ischemia model
A Wistar-strain male rat weighing about 400 g was intramuscularly dosed with 0.6 mg of d-tubocurarine to immobilize. After inserting a trachea cannula, the head was fixed to the stereofaxic apparatus under artificial respiration. After incising the head skin and drilling the cranial bone, an electrode for recording electroencephalogram was placed on the surface of the left frontal cortex. After fixing the electrode to the cranial bone using dental cement, the rat was supported in the rear position. Then, a cannula for measuring the blood pressure was intubated to the left femoral artery and another cannula for additionally dosing d-tubocurarine was also intubated to the left femoral vein. The heart rate was measured by a cardiotachometer triggered by pulse pressure.
After reaching the stable state of several parameters including blood pressure, heart rate and electroencephalogram, the effective ingredient of the present invention which was previously prepared so as to form suspension of 1 ml/kg with 1% tragacanth gum solution was directly dosed into the duodenum in a dose of 10 mg/kg at 30 minutes before cerebral ischemia loading. The control group were dosed by the same volume of 1% tragacanth gum solution only.
The blood pressure, heart rate and electroencephalogram were monitored 10 to 20 minutes after drug dosing with the multipurpose polygraph (Model RM-85, made by Nihon Kohden Co., Ltd.), and operation was made according to the following procedure:
Firstly, the ribs were freed from the left costal cartilage and the chest was opened. Then, 30 minutes after drug dosing, the left common carotid artery, left vertebral artery and brachiocephalic artery were simultaneously plugged at the origin of the arteries with artery clips to stop the blood flow into the brain for 10 minutes.
The resumption of blood flow into the brain was conducted by simultaneously releasing the artery clips which were attached to said positions.
The cerebral protective activity of the drug against the disturbance after the release of cerebral ischemic load was investigated by the restoration of electroencephalogram.
During the experiment, the rectal temperature was maintained at 37-38° C. with a heating pad and continuously recorded on the recorder along with electroencephalogram, femoral blood pressure and heart rate.

“Also recorded” adds a separate entry of the source.

As to `O=C1CC(Cn2ccnc2)=NN1c1ccc(Cl)cc1` [compound 44], half-maximal inhibition in assay [1] (IC50) required 22.7 µM. On to `CCCC1C(=O)N(C2CCCCC2)N=C1c1cccnc1` (stereo not drawn) [compound 23], for which the “Percent inhibition at 100 μM” value in assay [1] is 46.1%. For vitamin E, the “inhibition of lipid peroxidation” value in assay [2] is “known to inhibit lipid peroxidation due to active oxygen species; also recorded: not sufficient to inhibiting lipid peroxidation”. As for `CC1C(=O)N(c2ccc(Cl)cc2)N=C1c1cccnc1` (stereo not drawn) [compound 17], the IC50 (commonly the concentration at which inhibition is half-maximal) in assay [1] turned out to be 7.1 µM. Still for that read-out and setting: the value for `O=C1CC(c2ccco2)=NN1C1CCCCC1` [compound 36] was 8.3 µM.

As for `CCOc1ccc(N2N=C(Cc3cccnc3)CC2=O)cc1` [compound 27], inhibition in assay [1] was half-maximal at 12.2 µM (IC50). Still for that read-out and setting: with `COc1ccc(N2N=C(c3cccnc3)CC2=O)cc1` [Compound No. 4] the figure was 37 µM. Turning to `O=C1CC(c2cccnc2)=NN1c1ccccc1` [Compound No. 1, 1-phenyl-3-(3-pyridyl)-2-pyrazolin-5-one], in the assay on cerebral ischemia model, the restoration of electroencephalogram entry is on record as “the electroencephalogram appeared with restoration during the releasing”; the “function of the pulsation system” value is “the function of the pulsation system was activated and normalized”; the “survival period of time” value was “the survival period of time of the animals of the group was clearly extended”. For the same compound, the IC50 in assay [1] worked out at 23.6 µM.

In assay [1], `Cc1ccc(N2N=C(Cn3ccnc3)CC2=O)cc1` [compound 39] came in with a concentration for half-maximal inhibition (IC50) of 43 µM. Still for that read-out and setting: the value for `CCOC(=O)Cc1ccc(N2N=C(Cn3ccnc3)CC2=O)cc1` [compound 46] was 60.5 µM; that for `CC1C(=O)N(C2CCCCC2)N=C1c1cccnc1` (stereo not drawn) [compound 18] was 29.3 µM.

As to `O=C1CC(Cc2cccnc2)=NN1c1ccc(Cl)cc1` [compound 28], the IC50 in assay [1] is 4.1 µM.

With `O=C(O)Cc1ccc(N2N=C(c3cccnc3)CC2=O)cc1` [Compound No. 9, 4-[3-(3-pyridyl)-5-oxo-2-pyrazolin-1-il] phenylacetic acid], in assay [1], the “Percent inhibition at 100 μM” value is 2.6%.

Compound `O=C1CC(c2cccnc2)=NN1c1nc2ccccc2s1` [compound 13] came in with an IC50 in assay [1] of 84.1 µM.

In the case of `CCC1C(=O)N(c2ccccc2)N=C1Cn1ccnc1` (stereo not drawn) [compound 52], in assay [1], the “Percent inhibition at 100 μM” value is reported as 4.3%. With `CCOC(=O)Cc1ccc(N2N=C(c3cccnc3)CC2=O)cc1` [compound 8], the IC50 in assay [1] amounted to 13.6 µM. On the same count and under the same terms, the value for `CCOc1ccc(N2N=C(c3cccnc3)CC2=O)cc1` [Compound No. 5] was 12.9 µM. Still for that read-out and setting: with `O=C1CC(Cn2ccnc2)=NN1c1ccccn1` [compound 51] the figure was 51.3 µM; with `O=C1CC(c2cccnc2)=NN1c1ccc(Cl)cc1` [compound 6], 4.3 µM. Same read-out and setting: with `CCOC(=O)c1ccc(N2N=C(Cn3ccnc3)CC2=O)cc1` [compound 47] the figure was 35.1 µM. Regarding `O=C1CC(Cc2cccnc2)=NN1c1ccccc1` [compound 24], in the assay with cerebral ischemia model, the restoration of electroencephalogram result was “the electroencephalogram appeared with restoration during the releasing”; the “function of the pulsation system” value was “the function of the pulsation system was activated and normalized”; the “survival period of time” value is reported as “the survival period of time of the animals of the group was clearly extended”. The IC50 in assay [1] stood at 16.4 µM.

With `CCC1C(=O)N(c2ccccc2)N=C1c1cccnc1` (stereo not drawn) [compound 20], in assay [1], the IC50 was found to be 29.4 µM. Still for that read-out and setting: with `CCC1C(=O)N(c2ccc(C)cc2)N=C1Cn1ccnc1` (stereo not drawn) [compound 53] the figure was 38.2 µM. With `O=C(O)c1ccc(N2N=C(Cc3cccnc3)CC2=O)cc1` [compound 29], the “Percent inhibition at 100 μM” value in assay [1] was found to be 17.6%. In turn, `O=C1CC(c2cccnc2)=NN1c1ccc(O)cc1` [Compound No. 10, 1-(4-hydroxyphenyl)-3-(3-pyridyl)-2-pyrazolin-5-one] came in with an IC50 in assay [1] of 102 µM. As for `CCC1C(=O)N(C2CCCCC2)N=C1c1cccnc1` (stereo not drawn) [compound 21], the “Percent inhibition at 100 μM” value in assay [1] came out at 1.0%. In the case of `O=C1CC(c2ccco2)=NN1c1ccc(Cl)cc1` [compound 35], the IC50 in assay [1] stood at 3.7 µM. The same measure, in the same setting: the value for `COc1ccc(N2N=C(c3ccco3)CC2=O)cc1` [compound 34] was 6.5 µM; that for `O=C1CC(c2ccco2)=NN1c1ccccc1` [compound 32] was 4.3 µM. Same read-out and setting: the value for `CCCC1C(=O)N(c2ccccc2)N=C1c1cccnc1` (stereo not drawn) [compound 22] was 28.2 µM. On the same count and under the same terms, the value for `O=C1CC(Cn2ccnc2)=NN1c1ccc(Cl)c(Cl)c1` [compound 45] was 11 µM; that for `CCC1C(=O)N(c2ccc(Cl)cc2)N=C1Cn1ccnc1` (stereo not drawn) [compound 54] was 37.8 µM; that for `Cc1ccc(N2N=C(c3cccnc3)CC2=O)cc1` [compound 2] was 10.3 µM. Regarding `O=C1CC(Cc2cccnc2)=NN1c1ccccn1` [compound 31], in assay [1], the IC50 is 6.2 µM.

In assay [1], `O=C1CC(c2cccnc2)=NN1C1CCCCC1` [compound 11] showed an IC50 of 16.9 µM. On the same count and under the same terms, the value for `Cc1ccc(N2N=C(c3ccco3)CC2=O)cc1` [compound 33] was 4.1 µM. `O=C1CC(c2cccnc2)=NN1c1ccccn1` [compound 12]: in assay [1], the “Percent inhibition at 100 μM” value is reported as 43.2%. `CC1C(=O)N(c2ccccn2)N=C1c1cccnc1` (stereo not drawn) [compound 19] gave an IC50 in assay [1] of 12.3 µM. Consider `COc1ccc(N2N=C(Cn3ccnc3)CC2=O)cc1` [compound 43], for which, in assay [1], the “Percent inhibition at 100 μM” value worked out at 30.2%.

With `Cc1ccc(N2N=C(Cc3cccnc3)CC2=O)cc1` [compound 25], the IC50 in assay [1] came to 7.4 µM. On the same count and under the same terms, with `CCc1ccc(N2N=C(c3cccnc3)CC2=O)cc1` [compound 3] the figure was 4 µM; with `O=C1CC(c2ccco2)=NN1c1ccccn1` [compound 37], 15.4 µM; with `Cc1cccc(N2N=C(Cn3ccnc3)CC2=O)c1` [compound 41], 60 µM. Take `COc1ccc(N2N=C(Cc3cccnc3)CC2=O)cc1` [compound 26]: the IC50 in assay [1] came to 23.6 µM. `CC(C)C1C(=O)N(c2ccccc2)N=C1Cn1ccnc1` (stereo not drawn) [compound 55]: in assay [1], the “Percent inhibition at 100 μM” value worked out at 27.3%. On the same count and under the same terms, the value for `O=C(O)c1ccc(N2N=C(c3cccnc3)CC2=O)cc1` [compound 7] was 1.9%. The same measure, in the same setting: with `O=C(O)c1ccc(N2N=C(Cn3ccnc3)CC2=O)cc1` [Compound No. 49] the figure was 12.9%. Consider `O=C1CC(Cc2cccnc2)=NN1C1CCCCC1` [compound 30], for which the IC50 in assay [1] is 24 µM. For the compound `CC1C(=O)N(c2ccccc2)N=C1c1cccnc1` (stereo not drawn) [compound 14], 38.9 µM corresponded to half-maximal inhibition in assay [1] (IC50). On the same count and under the same terms, the value for `CCc1ccc(N2N=C(Cn3ccnc3)CC2=O)cc1` [compound 42] was 24.4 µM. Regarding `O=C1CC(Cn2ccnc2)=NN1C1CCCCC1` [compound 40], the “Percent inhibition at 100 μM” value in assay [1] is on record as 39.4%.

In the case of `O=C1CC(Cn2ccnc2)=NN1c1ccccc1` [compound 38], the IC50 in assay [1] stood at 60.1 µM. Still for that read-out and setting: the value for `Cc1ccc(N2N=C(c3cccnc3)C(C)C2=O)cc1` (stereo not drawn) [compound 15] was 12.5 µM; that for `COc1ccc(N2N=C(c3cccnc3)C(C)C2=O)cc1` (stereo not drawn) [compound 16] was 46.3 µM.

The values are drawn from patent publication US5089515A, “Lipid-peroxide formation inhibiting composition and novel compounds useful therefor” (priority 1986, dated 1992).
